According to patent publication US12653827B2, “Methods of treating indolent systemic mastocytosis” (Telios Pharma Inc., priority 2024, dated 2026):
pEC50: −log10 of the molar value. Read-outs that look alike come from different tables or passages of the source.

Assays:
serum tryptase = test: Serum tryptase in ISM patients; format: in vivo, human; conditions: 100 mg or 150 mg BID
Experimental: Also, blood samples were collected at the following timepoints: Cycle 1, Day 1: pre-dose (within 30 minutes prior to the morning dose), 0.5, 1.0, 2.0, 3.0, 4.0, and 6.0 hours (±15 minutes) post-morning dose. Cycle 1, Day 8: pre-dose (within 30 minutes prior to the morning dose) and 2 hours (±15 minutes) post-morning dose. Serum tryptase tests were conducted according to Example 14.
The measurement of serum tryptase can be followed to the procedure described in the literature (McMurray et al., Standardized indolent systemic mastocytosis evaluations across a health care system: implications for screening accuracy, Blood (2024) 144 (4): 408-419). Briefly, the procedure begins with proper patient preparation, avoiding recent physical activity or triggers that could cause mast cell activation. Venous blood samples, preferably drawn when the patient is not experiencing acute symptoms, are collected in serum separator tubes (SSTs) or plain red-top tubes, with approximately 5 mL of blood needed for analysis. After collection, the blood is allowed to clot at room temperature for 30-60 minutes before centrifugation for 10-15 minutes. The serum is then carefully separated from the cells and stored at 2-8° C. for short-term analysis or frozen at −20° C. or lower for long-term storage. […]

human mast cells = test: ISM-like mast cell chemotaxis towards conditioned media (Transwell); format: cell-based; conditions: ISM-like conditions, four healthy donors, treated two hours
Experimental: Human mast cells were differentiated from bone marrow CD34+ cells from four healthy donors as set forth in Example 4. Cells were used to produce conditioned media in ISM-like conditions. Conditioned media was the supernatant collected from mast cells cultured with stem cell factor (100 ng/mL), sensitized with NP-IgE (0.1 μg/mL) for 18 hours, treated with Compound 128 for two hours, and stimulated with NP-BSA (antigen; 0.1 μg/mL) for four hours. Migration of mast cells in the top chamber on Transwell […] inserts (Corning) towards the antigen-stimulated conditioned media in the bottom chamber was quantified after four hours using the CellTiter-Glo™ Luminescent Cell Viability Assay Kit (Promega). The amount of luminescence is correlated with live cell numbers. Fold change over the non-activated control was calculated.

mast cells = test: Return of degranulation after Compound 128 exposure and washout (FIG. 18); format: cell-based; conditions: flow cytometry
Text: FIGS. 18A-D show return of degranulation after Compound 128 exposure.

basophils = test: Basophil Activation Test (BAT), CD63, anti-FcεR stimulated blood from healthy donors; format: cell-based, human; conditions: for pEC50: Homo sapiens
Experimental: The BAT was conducted as set forth in Santos (2021) Allergy, 76:2420-2432. Blood from six healthy donors was drawn and Compound 128 was added at various concentrations (10 μM, 3.16 μM, 1 μM, 0.3 μM, 0.1 μM, 0.03 μM, or 0 μM). Blood samples were gently rocked at room temperature for 2 hours, 24 hours, or 48 hours. The BAT assay using the Flow Cast Basophil Activation Kit (Buhlmann Diagnostics; Catalog #B-CCR-STCON) was then conducted following manufacturer instructions by (1) stimulating the blood with anti-FcεR stimulation control in stimulation buffer with IL-3 and staining cells for CCR3 and CD63 for 15 minutes at 37° C., (2) lysing red blood cells and fixing cells with Lysing Reagent at room temperature for 10 minutes, (3) washing cells with Wash Buffer, and (4) acquiring data on a flow cytometer. Activated basophils were defined as CCR3+, low side scatter and CD63+. Percent of activated basophils was calculated as number of activated basophils over the total number of basophils. A four-parameter logistic regression was applied to determine the EC50 and EC90.

IL-4 = test: Anti-IgE induced IL-4 production from basophils in whole blood; format: cell-based, human; conditions: whole blood from a healthy donor, treated two hours, anti-IgE six hours
Experimental: Human mast cells lines, ROSA with wildtype KIT and ROSA […] with D816V KIT mutation (ISM-like cells), were licensed from CRNS Innovation and cultured with or without stem cell factor (100 ng/mL), respectively (FIG. 12A). ROSA cells were stimulated with IL-4 (20 ng/mL; R&D Systems) for 18 hours, stained for FcεRIα(Becton Dickinson) for 30 minutes on ice, washed twice with FACS buffer and data was acquired on a flow cytometer. The median fluorescence intensity of FcεRIα was measured. […] Whole blood from a healthy donor was treated with Compound 128 for two hours and the basophils were stimulated with anti-IgE (1 μg/mL; Beckman Coulter) for six hours (FIG. 12B). Plasma was collected and IL-4 levels were measured using the BD CBA human soluble protein master buffer kit and BD CBA human soluble protein flex set for IL-4 (Becton Dickinson). A four-parameter logistic regression analysis was performed on the cytokine levels to determine the EC50 and EC90. […] Therefore, Compound 128 may indirectly effect FcεRI expression by the reduction of IL-4 levels.

[1] = system: calcium influx in mast cell; test: IgE-mediated calcium influx in ISM patient mast cells (FIG. 17); format: cell-based; conditions: presence of SCF
Experimental: Mast cell from an ISM patient was treated with Compound 128 at 50 mg, 75 mg, 100 mg, and 150 mg BID dose prior to antigen (Ag) stimulation. ISM 3-2 mast cell donor MC 1061-004 C1D8 D39. Experiments performed in the presence of SCF. […] Percent of Control (POC) based on Area-under-Curve above baseline (1st value).

BTK = BTK (Homo sapiens, UniProt Q06187); test: BTK phosphorylation in mast cells (FIG. 19); format: cell-based; set-up: endogenous in cells
Sequence of BTK (Q06187 whole entry): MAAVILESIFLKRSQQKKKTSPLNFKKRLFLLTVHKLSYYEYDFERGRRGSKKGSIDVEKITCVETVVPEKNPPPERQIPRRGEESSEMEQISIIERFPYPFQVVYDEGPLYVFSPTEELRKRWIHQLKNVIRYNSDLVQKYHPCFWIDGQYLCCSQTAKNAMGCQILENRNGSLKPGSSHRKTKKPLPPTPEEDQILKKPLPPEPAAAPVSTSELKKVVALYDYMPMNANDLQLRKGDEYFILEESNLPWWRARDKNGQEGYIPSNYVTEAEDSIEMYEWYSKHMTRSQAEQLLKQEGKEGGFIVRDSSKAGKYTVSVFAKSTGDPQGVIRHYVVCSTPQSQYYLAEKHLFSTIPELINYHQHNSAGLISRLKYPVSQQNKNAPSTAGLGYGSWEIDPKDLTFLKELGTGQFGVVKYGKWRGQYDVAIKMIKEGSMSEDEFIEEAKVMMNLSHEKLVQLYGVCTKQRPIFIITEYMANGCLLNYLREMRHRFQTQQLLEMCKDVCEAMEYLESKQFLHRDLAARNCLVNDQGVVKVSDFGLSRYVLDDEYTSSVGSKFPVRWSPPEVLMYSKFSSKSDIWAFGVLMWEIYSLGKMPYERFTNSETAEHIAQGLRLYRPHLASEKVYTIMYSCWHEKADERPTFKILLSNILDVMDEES

potency in inhibiting BTK phosphorylation in mast cells (BTK): high potency
SMILES: C=CC(=O)N1CCC(F)(CNc2ncnc(N)c2-c2ccc(Oc3ccccc3)cc2)CC1 [Compound 128, 1-(4-(((6-amino-5-(4-phenoxyphenyl)pyrimidin-4-yl)amino)methyl)-4-fluoropiperidin-1-yl)prop-2-en-1-one]
reduction in serum tryptase (serum tryptase): effective in reducing serum tryptase levels
chemoattractant activity of mast cells (chemotaxis towards conditioned media) (human mast cells): inhibited
time to restoration of degranulation after inhibition (mast cells): ≤ 24 h
pEC50 (basophils; 2-hour drug exposure, blood from six healthy donors, read-out: average EC50, inhibition of anti-FcεR induced basophil activation (CD63+)): 6.30
pEC50 (basophils; 24-hour drug exposure, blood from six healthy donors, read-out: average EC50, inhibition of anti-FcεR induced basophil activation (CD63+)): 6.92
pEC50 (basophils; 48-hour drug exposure, blood from six healthy donors, read-out: average EC50, inhibition of anti-FcεR induced basophil activation (CD63+)): 7.00
pEC50 (basophils; 24 hours exposure, Example 2, read-out: average EC50 (n=4), CD63 normalized to DMSO control in CCR3+ basophils): 6.92
potency increase of basophil activation inhibition (basophils; after 24 hours drug exposure): approximately 4 fold
IgE-mediated IL-4 production (IL-4): potently inhibited
inhibition of IgE-mediated calcium influx [1]: potently inhibits
